PubChem BioAssay (NCI)
Where “and” joins values, the source holds several entries; their conditions need not be identical. Equal values may be shown once.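 Method: 48-hour compound exposure of cells in 96-well plates, five concentrations, linear interpolation of endpoints. At the GI50, growth is halved. TGI is the concentration that stops growth completely.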

Tests used:
Test in all cases: growth of human tumour cells (NCI), 48 h
[1] = test system: HS 578T breast
[2] = test system: SK-MEL-28 melanoma
[3] = test system: SF-268 CNS
[4] = test system: SNB-19 CNS
[5] = test system: RXF 393 renal
[6] = test system: HOP-92 NSCLC
[7] = test system: NCI-H460 lung
[8] = test system: NCI-H23 lung
[9] = test system: UACC-62 melanoma
[10] = test system: SK-MEL-2 melanoma

| SMILES | GI50 [1] | TGI [1] [µM] | GI50 [2] | TGI [2] | GI50 [3] | TGI [3] | GI50 [4] | TGI [4] [µM] | GI50 [5] | TGI [5] | GI50 [6] | TGI [6] | GI50 [7] | TGI [7] | GI50 [8] | TGI [8] | GI50 [9] | TGI [9] | GI50 [10] | TGI [10] |
| --- | --- | --- | --- | --- | --- | --- | --- | --- | --- | --- | --- | --- | --- | --- | --- | --- | --- | --- | --- | --- |
| O=C(Nc1cnc(C(F)(F)F)cn1)c1cc(Cl)ccc1O | 0.335 µM | 26.4 | 0.257 µM | 2.2 µM | 0.296 µM | 94.1 µM | 0.403 µM | > 100 | 0.318 µM | 0.922 µM | 0.188 µM | 0.621 µM | 0.332 µM | 15.2 µM | 0.257 µM | 1.22 µM | 0.191 µM | 1.48 µM | 0.271 µM | 0.84 µM |
| COc1cc(/C=C/[N+](=O)[O-])cc(OC)c1OC | 3.46 µM | 28.1 | 2.23 µM | 4.9 µM | 4.39 µM | 15.2 µM | 5.64 µM | 18.4 | 1.47 µM | 2.97 µM | 2.25 µM | 6.52 µM | 3.36 µM | 12.4 µM | 2.41 µM | 6.44 µM | 1.72 µM | 3.49 µM | 3.05 µM | 7.11 µM |
| C[C@H]1c2ccccc2CN1CCCOc1cc2c(cc1OCC1CC1)C1(CCCC1)C(N)=N2 | 1.74 µM | 9.44 |  |  | 2.94 µM | 10.3 µM | 5.65 µM | 11.8 | 1.08 µM | 3.82 µM | 0.633 µM | 3.54 µM | 1.02 µM | 2.1 µM | 3.26 µM | 10.3 µM | 0.925 µM | 1.93 µM | 1.87 µM | 6.69 µM |
| OCc1ccc(N2CCCC2)cc1Cl | > 50 µM | > 100 | > 100 µM | > 100 µM | > 61.3 µM | > 100 µM | > 100 µM | > 100 | 9.57 µM | 27.1 µM | 2.22 µM | 24.2 µM | 3.55 µM | 28.5 µM | 27.5 µM | > 100 µM | 0.879 µM | 4.28 µM | 12.9 µM | 51.5 µM |
| O=C(NN1C(=O)CSC1c1ccc(F)cc1)C(O)c1ccccc1 (configuration not stated) | > 100 µM | > 100 | > 100 µM | > 100 µM | > 100 µM | > 100 µM | > 100 µM | > 100 | > 100 µM | > 100 µM | > 100 µM | > 100 µM | 81.8 µM | > 100 µM |  |  | 80.2 µM | > 100 µM | > 100 µM | > 100 µM |
| O=NN(CCCl)C(=O)NC1CCC(=O)NC1=O (configuration not stated) |  | 1100 |  | 1030 µM |  | 615 µM |  | 934 |  | 583 µM |  | 377 µM |  | 463 µM |  | 842 µM |  | 192 µM |  | 405 µM |
| C=CCn1c(=O)c2cnc(Nc3ccc(N4CCN(C)CC4)cc3)nc2n1-c1cccc(C(C)(C)O)n1 | 0.894 µM and 0.471 µM | > 60 | 4.61 µM and 4.37 µM | 20.6 µM and > 10 µM | 1.49 µM and 1.69 µM | 51.9 µM and > 10 µM | 1.17 µM and 0.526 µM | > 100 | 0.0855 µM and 0.232 µM | 0.531 µM and 1.14 µM | 0.131 µM and 0.221 µM | 3.92 µM and 2.38 µM | 1.56 µM and 0.996 µM | 14.1 µM and > 10 µM | 0.218 µM and 0.295 µM | 1.27 µM and > 4.86 µM | 1.18 µM and 0.484 µM | 20.5 µM and > 10 µM | 0.118 µM and 0.266 µM | 0.956 µM and 2.99 µM |
| CC1=C(Cl)C[C@@H](/C(C)=C\Cl)O[C@@]1(O)C(Br)Br |  | > 100 |  | > 100 µM |  | > 100 µM |  | > 100 |  | 62.2 µM |  | 53.2 µM |  | > 100 µM |  | > 100 µM |  | > 100 µM |  | 73.8 µM |
| CC(=O)O.CC(=O)O.CC(=O)O.CC(=O)O.[Rh].[Rh] | 60.6 µM | > 100 | 32.3 µM | 93.8 µM | 33.2 µM | > 100 µM | 60 µM | > 100 | 10.5 µM | 78.3 µM | 25.5 µM | 63.1 µM | 37.4 µM | > 100 µM | 32.1 µM | > 100 µM | 24.3 µM | 56.5 µM | 30.7 µM | 81.4 µM |
| C=CCCCOC1[C@H](OCc2ccccc2)C(OCc2ccccc2)C(OC)O[C@@H]1CNC(=O)c1cccc(I)c1 (some centres not stated) | 9.32 µM | > 100 | 8.51 µM | > 100 µM | 5.38 µM | > 100 µM | 6.35 µM | > 100 | 3.91 µM | > 100 µM | 5.08 µM | > 100 µM | 2.91 µM | 8.64 µM | 33.6 µM | > 100 µM | 3.8 µM | > 100 µM | 48.1 µM | > 100 µM |
| O=C1CSC(c2ccccc2O)N1c1nnc(Cn2ccnc2)o1 (configuration not stated) | 20.5 µM | > 100 | 13.8 µM | 41.2 µM | 10.8 µM | 48 µM |  |  | 22.7 µM | > 100 µM | 2.23 µM | 28.9 µM | 4.76 µM | > 100 µM | 14.9 µM | 65 µM | 11.5 µM | 26 µM | 15.2 µM | 36.4 µM |
| Cc1ccc(Sc2oc(-c3ccc(C)cc3)nc2[P+](c2ccccc2)(c2ccccc2)c2ccccc2)cc1 | 0.378 µM | 1.98 | 0.595 µM | 1.87 µM | 0.399 µM | 1.66 µM | 0.375 µM | 1.47 | 0.316 µM | 1.33 µM | 0.178 µM | 0.722 µM | 0.312 µM | 1.12 µM | 0.298 µM | 1.02 µM | 0.398 µM | 1.5 µM | 1.12 µM | 2.63 µM |
| COc1ccc(Oc2ccccc2NC(=O)CNC(=O)c2cccc3ccccc23)cc1 | 1.71 µM | > 25 | 2.27 µM | > 25 µM | 2.03 µM | > 25 µM | 1.24 µM | > 25 | 0.494 µM | > 25 µM | > 25 µM | > 25 µM | 0.859 µM | > 25 µM | 1.28 µM | > 25 µM | 0.559 µM | > 25 µM |  |  |
